Test results as given in patent US6194451A, “Matrix metalloproteinase inhibitors” (Pharmacia & Upjohn S.p.A., priority 1997, dated 2001).

Assays:
[1] = tested on: release of TNF from THP-1 cells; experiment: Cellular Assay (Protocol B): inhibition of release of TNF from LPS-stimulated THP-1 cells; assay type: cell-based; settings: Homo sapiens, LPS 5 microg/mL, 4 h
Experimental: For example, the following cell-based assay was used to assess such activity:
THP-1 cells, cultured in RPMI 1640 supplemented with 10% FCS, were distributed into 24-well plates, 1 mL of a suspension of 1×10^6 cells/mL in each well. Compounds to be tested, dissolved in DMSO and diluted with the culture medium (1% final DMSO concentration) were added. Plates were incubated for 30 min at 37° C. in 5% CO2, and lipopolisaccharide (LPS 0111:B4, 5 microg/mL) was added as a stimulant. After a further 4 h incubation, cells were harvested, centrifuged (2,000 rpm, 7 min), and the surnatant was collected and freezed (-20° C.) until analysis. Analysis was run by classical ELISA methodology (monoclonal anti-TNF-a antibody, rabbit capture policlonal antibody, and peroxidated anti-rabbit antibody).

[2] = target: T1, MMP-3 (human stromelysin-1) (Homo sapiens, UniProt P08254); experiment: Biochemical Assay (Protocol A): inhibition of human stromelysin-1, fluorimetric peptide substrate; settings: MMP-3, pH 7.4, 37° C.
T1 construct: host or cells: E. coli or baculovirus-infected Sf9 insect cells
Source text: (§1) As mentioned above, although low molecular weight MMP inhibitors, including hydroxamates of general formula (A), are already known, there is a strong need for better and diversified molecules for their use in medicine, that is in particular in the control or prevention of degenerative joint diseases such as rheumatoid arthritis and osteoarthritis, or in the management of multiple sclerosis, or in the treatment of invasive tumors. […] For example, the following protocol was used to assess the biochemical activity of compounds of formula (I) against MMP-1, MMP-2, and MMP-3 (respectively, human interstitial collagenase, gelatinase A, and stromelysin-1).
(§2) Human gelatinase-A (MMP-2) was obtained as pro-enzyme (72 kDa) and was activated with 1 mM 4-aminophenylmercuric acetate for 30 min at 37° C. immediately prior to use. Human stromelysin-1 (MMP-3) was obtained as a recombinant pro-enzyme isolated either from E. coli or from baculovirus infected Sf9 insect cells and activated either by heat (1 h, 55° C.) or by 5 mg/l trypsin (30 min, 37° C.) before addition of soybean trypsin inhibitor, finally removed by centrifugation.
(§3) All enzyme assays to determine values of the enzyme-inhibitor dissociation constants were performed using the peptide substrate (7-methoxycoumarin-4-yl)Acetyl-Pro-Leu-Gly-Leu-(3-[2,4-dinitrophenyl]-L-2,3-diaminopropionyl)-Ala-Arg-NH2 (Mca-Pro-Leu-Gly-Leu-Dpa-Ala-Arg--NH2) (C. G. Knight et al., FEBS Lett. 296:263-266, 1992). The enzymes cleave at the Gly-Leu bond removing the internally quenching Dpa group. The release of the highly fluorescent peptide Mca-Pro-Leu was followed fluorimetrically setting the excitation wavelength at 326 nm (bandwidth 5 nm) and the emission at 392 nm (bandwidth 20 nm).
(§4) Continuous fluorescence assay was carried out using a Perkin Elmer LS-50 Fluorescence Spectrophotometer fitted with a thermostatted four position stirring cell changer. Inhibitors were dissolved in the assay buffer ([…] Tris/HCl pH 7.4 containing 0.15 M NaCl, 10 mM CaCl2, 0.01 mM ZnCl2 and 0.05% Brij 35) thermostatted at 37° C. The reaction was started by the addition of substrate ([…]), followed by the addition of the enzyme (e.g. 1.0 nM collagenase, 0.04 nM gelatinase, or 3.0 nM stromelysin) and the increase in fluorescence was monitored over 30 min. The run was repeated at different concentrations of inhibitors in the range 0.1-10000 nM and data at inhibitor concentration in the region if their enzyme-inhibitor dissociation constants were used for calculation.
(§5) Substrate consumption was within 5% of the initial concentration and data outside this range were discarded. The Michaelis constants (Km) for the enzyme-substrate complexes is […] or greater (C. G. Knight et al., reference above), so that the factor (1+S/Km) can be approximated to unity without appreciable error.

[3] = target: T2, MMP-1 (human interstitial collagenase) (Homo sapiens, UniProt P03956); experiment: Biochemical Assay (Protocol A): inhibition of human collagenase, fluorimetric peptide substrate; settings: MMP-1, pH 7.4, 37° C.
T2 construct: truncated recombinant enzyme encompassing residues 101-269
T2 sequence (P03956 101-269): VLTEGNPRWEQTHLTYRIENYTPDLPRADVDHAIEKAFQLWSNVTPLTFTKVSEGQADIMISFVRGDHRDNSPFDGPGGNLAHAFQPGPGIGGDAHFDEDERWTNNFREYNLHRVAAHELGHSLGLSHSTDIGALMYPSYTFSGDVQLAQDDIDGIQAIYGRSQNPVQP
Source text: as §1, §2, §3, §4, §5

[4] = Pharmacokinetic Assay (Protocol C): plasma levels after i.v. and oral administration to rats; assay type: in vivo, rat (male Sprague-Dawley); settings: 15 mg/kg
Experimental: Male rats (Sprague-Dawley; body weight about 250-300 g) were acclimatized for about one week before the start of the study. […] Before treatment, rats were overnight fasted. For each compound to be assessed, three rats were treated intravenously (injection in the tail vein as a bolus) with a single dose of 15 mg/kg (as free base or free acid if needed) body weight. Other three rats were treated orally (single bolus dose by gastric gavage) with 15 mg/kg of the same compound. In same cases, according to the detection limit of each particular compound, and its availability in stock, these standard doses were modified as needed.
Blood samples were collected into syringes especially prepared for use with the cannulated animals via the SCV cannula. Under standard conditions, blood samples (0.2 mL) were transferred into heparinized tubes at the following times: 0 (pre-dose), 2, 4, 8, 16, 30, 45, 60, 90 min, 2, 4, 6, 8 and 24 h after iv administration; 0 (pre-dose), 5, 10, 30, 45, 60, 90 min, 2, 4, 6, 8, and 24 h after oral administration. Plasma was obtained immediately by centrifugation (about 10,000 rpm for 3 min) and stored at -80° C. till analysis. Plasma samples were assayed for parent drug concentrations using an appropriate analytical method. Under standard conditions, liquid chromatography--tandem mass spectrometry (LC/MS-MS) was used.
Non-compartmental pharmacokinetic calculations were performed with the aid of Pharm-NCA package (SIMED, France). Maximum plasma concentration, Cmax, and the corresponding time, tmax, were read as the coordinates of the highest raw-data point for individual plasma profiles. Terminal phase was evaluated by graphic judgement by eye; terminal rate constant, was calculated as the slope of the terminal linear portion of natural log-transformed plasma concentrations vs. time curve, obtained using linear regression. Terminal half-life, t1/2,z, was calculated as ln(2)/lz. The area under the plasma concentration-time curve was estimated by the linear trapezoidal rule up to the last measured concentration (AUC(0-tz)) and extrapolated to infinity assuming monoexponential decay, using the formula AUC=AUC(0-tz)+C(tz)/lz, where C(tz) is the measured concentration of the last point with detectable concentration. Following iv dosing, systemic clearance was obtained using the formula Cl=Dose/AUC. According to Protocol C, the pharmacokinetic in rats of some representative compounds within the present invention was evaluated. Significant pharmacokinetic data obtained in rats at a 15 mg/kg dose were as follows: […]

T1 sequence (P08254 100-477): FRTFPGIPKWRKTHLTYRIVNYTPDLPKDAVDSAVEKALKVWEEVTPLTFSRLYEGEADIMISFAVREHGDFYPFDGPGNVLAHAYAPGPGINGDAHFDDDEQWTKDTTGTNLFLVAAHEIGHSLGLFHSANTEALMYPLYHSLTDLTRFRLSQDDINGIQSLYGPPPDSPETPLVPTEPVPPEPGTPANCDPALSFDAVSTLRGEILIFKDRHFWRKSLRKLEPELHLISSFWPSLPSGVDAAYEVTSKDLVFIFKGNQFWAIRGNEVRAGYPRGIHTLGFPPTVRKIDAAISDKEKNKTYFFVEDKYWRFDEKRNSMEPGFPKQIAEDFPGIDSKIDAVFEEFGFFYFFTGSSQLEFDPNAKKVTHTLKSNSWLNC

Q: What does the source list for `CNC(=O)[C@@H](NC(=O)[C@H](CC(C)C)[C@](O)(CO)C(=O)NO)C(C)(C)C` [Example 3]?
A: IC50 [1]: 8100 nM; Ki [2]: 150 nM; Ki [3]: 2.3 nM; plasma clearance compared with literature hydroxamic acid MMP inhibitors ([4]; to our best knowledge): inferior to that reported for any hydroxamic acid MMP inhibitor disclosed in the literature; AUC iv ([4]; iv): 1.53 mg·min/mL; half-life ([4]; rat, plasma, terminal half-life, read-out: t1/2,z (converted)): 5.4 h; clearance ([4]; rat, plasma, iv): 9.89 mL/min/kg; AUC ([4]; rat, plasma, oral): 1100 ng·h/mL
